Source: PMC10384675, “Novel Thiazolidine-2,4-dione-trimethoxybenzene-thiazole Hybrids as Human Topoisomerases Inhibitors” (Pharmaceuticals, 2023)

Tested on: A2058 melanoma cells
Assay: MTT cell viability assay, A2058
Format: cell-based
Settings: Homo sapiens, 72 h
Procedure: All of the synthesized compounds (7a–f) were studied to test their anticancer activity toward the estrogen receptor-positive (ER+) MCF-7 and the triple-negative MDA-MB-231 breast cancer cells (ER-, PR- and HER-2/Neu not overexpressed) and A2058 melanoma cells. Cells were incubated for 72 h with different concentrations of the compounds, and then the viability was checked by the MTT assay. […] Moreover, we checked the cytotoxicity of all of the synthesized compounds against the human MCF-10A non-malignant breast epithelial cells and mouse BALB/3T3 embryonic fibroblasts, in order to evaluate their selectivity on cancer cells.
The used cell lines (breast cancer cell lines MCF-7 and MDA-MB-231, melanoma cell line A2058 and human mammary epithelial cell line MCF-10A) were obtained from American Type Culture Collection (ATCC, Manassas, VA, USA) and cultured as already reported. The mouse BALB/3T3 embryonic fibroblasts were also purchased from American Type Culture Collection (ATCC, Manassas, VA, USA) and cultured in DMEM high glucose supplemented with 10% bovine calf serum (BCS) and 100 U mL^−1 penicillin/streptomycin.
MTT assay (Sigma Aldrich (St. Louis, MO, USA)) was performed for evaluating the in vitro anticancer activities of the compounds, as previously indicated. Different concentrations (0.1, 1, 10, 25, 50, and 100 μM) of the compounds were employed, with a 72 h endpoint. IC50 values were obtained from the percent (%) of control using GraphPad Prism 9 (GraphPad Software, La Jolla, CA, USA).

Structure (SMILES): COc1cc(/C=C2\SC(=O)N(CC(=O)Nc3nc(-c4ccc(Br)cc4)cs3)C2=O)cc(OC)c1OC [compound 7e, (Z)-2-(5-(3,4,5-Trimethoxybenzylidene)thiazolidin-2,4-dion-3-yl)-N-(4-(4-bromophenyl)thiazol-2-yl)acetamide]
- IC50: 8.4 ± 0.9 µM
